Measurements as given in PubChem BioAssay (NCI).
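Compound exposure: 48 hours, 5 concentrations, 96-well plates. TGI: total growth inhibition.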

test system: OVCAR-3 ovarian; assay: NCI-60 cell line screen, 48 h

Compound	TGI [µM]
COc1ccc(NC(=O)CSc2nnc(-c3ccc(N=Cc4ccc(Cl)cc4)cc3)o2)cc1	73.2
COc1ccc(-c2ccccc2)c(N/N=C2\CCCNC2=O)c1	> 100
COc1ccc(C2Oc3ccc(O)cc3[C@@H]2C)cc1OC (stereo partly drawn)	> 100

test system: EKVX NSCLC; assay: NCI-60 cell line screen, 48 h

Compound	TGI [µM]
CCOC(=O)COc1ccc(OC)c2c1C(=O)CCC2	> 100
COc1ccc(NC(=O)CSc2nnc(-c3ccc(N=Cc4ccc(Cl)cc4)cc3)o2)cc1	> 100
COc1ccc(-c2ccccc2)c(N/N=C2\CCCNC2=O)c1	> 100
COc1ccc(C2Oc3ccc(O)cc3[C@@H]2C)cc1OC (stereo partly drawn)	> 100

test system: CAKI-1 renal; assay: NCI-60 cell line screen, 48 h

Compound	TGI [µM]
COc1ccc(C2Oc3ccc(O)cc3[C@@H]2C)cc1OC (stereo partly drawn)	> 100

test system: MDA-MB-231 breast; assay: NCI-60 cell line screen, 48 h

Compound	TGI [µM]
COc1ccc(NC(=O)CSc2nnc(-c3ccc(N=Cc4ccc(Cl)cc4)cc3)o2)cc1	> 100

test system: SK-MEL-5 melanoma; assay: NCI-60 cell line screen, 48 h

Compound	TGI [µM]
CCOC(=O)COc1ccc(OC)c2c1C(=O)CCC2	> 100
COc1ccc(NC(=O)CSc2nnc(-c3ccc(N=Cc4ccc(Cl)cc4)cc3)o2)cc1	> 100
COc1ccc(-c2ccccc2)c(N/N=C2\CCCNC2=O)c1	> 100
COc1ccc(C2Oc3ccc(O)cc3[C@@H]2C)cc1OC (stereo partly drawn)	> 100

test system: SN12C renal; assay: NCI-60 cell line screen, 48 h

Compound	TGI [µM]
CCOC(=O)COc1ccc(OC)c2c1C(=O)CCC2	> 100
COc1ccc(NC(=O)CSc2nnc(-c3ccc(N=Cc4ccc(Cl)cc4)cc3)o2)cc1	56.8
COc1ccc(-c2ccccc2)c(N/N=C2\CCCNC2=O)c1	> 100

test system: NCI-H226 lung; assay: NCI-60 cell line screen, 48 h

Compound	TGI [µM]
COc1ccc(NC(=O)CSc2nnc(-c3ccc(N=Cc4ccc(Cl)cc4)cc3)o2)cc1	> 76.3
COc1ccc(-c2ccccc2)c(N/N=C2\CCCNC2=O)c1	> 100
COc1ccc(C2Oc3ccc(O)cc3[C@@H]2C)cc1OC (stereo partly drawn)	> 100

test system: MCF7 breast; assay: NCI-60 cell line screen, 48 h

Compound	TGI [µM]
COc1ccc(NC(=O)CSc2nnc(-c3ccc(N=Cc4ccc(Cl)cc4)cc3)o2)cc1	> 100

test system: SF-539 CNS; assay: NCI-60 cell line screen, 48 h

Compound	TGI [µM]
CCOC(=O)COc1ccc(OC)c2c1C(=O)CCC2	> 100
COc1ccc(-c2ccccc2)c(N/N=C2\CCCNC2=O)c1	> 100
COc1ccc(C2Oc3ccc(O)cc3[C@@H]2C)cc1OC (stereo partly drawn)	> 100

test system: CCRF-CEM leukemia; assay: NCI-60 cell line screen, 48 h

Compound	TGI [µM]
CCOC(=O)COc1ccc(OC)c2c1C(=O)CCC2	> 100
COc1ccc(NC(=O)CSc2nnc(-c3ccc(N=Cc4ccc(Cl)cc4)cc3)o2)cc1	> 82.7
COc1ccc(C2Oc3ccc(O)cc3[C@@H]2C)cc1OC (stereo partly drawn)	> 100

test system: M14 melanoma; assay: NCI-60 cell line screen, 48 h

Compound	TGI [µM]
CCOC(=O)COc1ccc(OC)c2c1C(=O)CCC2	> 100
COc1ccc(NC(=O)CSc2nnc(-c3ccc(N=Cc4ccc(Cl)cc4)cc3)o2)cc1	> 96.3
COc1ccc(-c2ccccc2)c(N/N=C2\CCCNC2=O)c1	> 100
COc1ccc(C2Oc3ccc(O)cc3[C@@H]2C)cc1OC (stereo partly drawn)	> 100

test system: SNB-75 CNS; assay: NCI-60 cell line screen, 48 h

Compound	TGI [µM]
CCOC(=O)COc1ccc(OC)c2c1C(=O)CCC2	> 100
COc1ccc(NC(=O)CSc2nnc(-c3ccc(N=Cc4ccc(Cl)cc4)cc3)o2)cc1	> 86.7
COc1ccc(-c2ccccc2)c(N/N=C2\CCCNC2=O)c1	> 100
COc1ccc(C2Oc3ccc(O)cc3[C@@H]2C)cc1OC (stereo partly drawn)	> 100

test system: HOP-62 NSCLC; assay: NCI-60 cell line screen, 48 h

Compound	TGI [µM]
COc1ccc(NC(=O)CSc2nnc(-c3ccc(N=Cc4ccc(Cl)cc4)cc3)o2)cc1	> 88.6
COc1ccc(-c2ccccc2)c(N/N=C2\CCCNC2=O)c1	87.1
COc1ccc(C2Oc3ccc(O)cc3[C@@H]2C)cc1OC (stereo partly drawn)	> 100

test system: OVCAR-4 ovarian; assay: NCI-60 cell line screen, 48 h

Compound	TGI [µM]
CCOC(=O)COc1ccc(OC)c2c1C(=O)CCC2	> 100
COc1ccc(NC(=O)CSc2nnc(-c3ccc(N=Cc4ccc(Cl)cc4)cc3)o2)cc1	> 100
COc1ccc(C2Oc3ccc(O)cc3[C@@H]2C)cc1OC (stereo partly drawn)	> 100

test system: UO-31 renal; assay: NCI-60 cell line screen, 48 h

Compound	TGI [µM]
COc1ccc(NC(=O)CSc2nnc(-c3ccc(N=Cc4ccc(Cl)cc4)cc3)o2)cc1	> 100
COc1ccc(-c2ccccc2)c(N/N=C2\CCCNC2=O)c1	> 100
COc1ccc(C2Oc3ccc(O)cc3[C@@H]2C)cc1OC (stereo partly drawn)	> 100

test system: NCI/ADR-RES ovarian; assay: NCI-60 cell line screen, 48 h

Compound	TGI [µM]
COc1ccc(NC(=O)CSc2nnc(-c3ccc(N=Cc4ccc(Cl)cc4)cc3)o2)cc1	> 100

test system: A549 NSCLC; assay: NCI-60 cell line screen, 48 h

Compound	TGI [µM]
CCOC(=O)COc1ccc(OC)c2c1C(=O)CCC2	> 100
COc1ccc(NC(=O)CSc2nnc(-c3ccc(N=Cc4ccc(Cl)cc4)cc3)o2)cc1	> 100
COc1ccc(-c2ccccc2)c(N/N=C2\CCCNC2=O)c1	27
COc1ccc(C2Oc3ccc(O)cc3[C@@H]2C)cc1OC (stereo partly drawn)	> 100

test system: HCC-2998 colon; assay: NCI-60 cell line screen, 48 h

Compound	TGI [µM]
COc1ccc(NC(=O)CSc2nnc(-c3ccc(N=Cc4ccc(Cl)cc4)cc3)o2)cc1	> 100
COc1ccc(-c2ccccc2)c(N/N=C2\CCCNC2=O)c1	> 100
COc1ccc(C2Oc3ccc(O)cc3[C@@H]2C)cc1OC (stereo partly drawn)	> 100

test system: DU-145 prostate; assay: NCI-60 cell line screen, 48 h

Compound	TGI [µM]
COc1ccc(NC(=O)CSc2nnc(-c3ccc(N=Cc4ccc(Cl)cc4)cc3)o2)cc1	> 100

test system: TK-10 renal; assay: NCI-60 cell line screen, 48 h

Compound	TGI [µM]
CCOC(=O)COc1ccc(OC)c2c1C(=O)CCC2	> 100
COc1ccc(NC(=O)CSc2nnc(-c3ccc(N=Cc4ccc(Cl)cc4)cc3)o2)cc1	> 100
COc1ccc(-c2ccccc2)c(N/N=C2\CCCNC2=O)c1	> 100
COc1ccc(C2Oc3ccc(O)cc3[C@@H]2C)cc1OC (stereo partly drawn)	> 100

test system: HCT-116 colon; assay: NCI-60 cell line screen, 48 h

Compound	TGI [µM]
CCOC(=O)COc1ccc(OC)c2c1C(=O)CCC2	> 100
COc1ccc(NC(=O)CSc2nnc(-c3ccc(N=Cc4ccc(Cl)cc4)cc3)o2)cc1	> 49.5
COc1ccc(-c2ccccc2)c(N/N=C2\CCCNC2=O)c1	25.8
COc1ccc(C2Oc3ccc(O)cc3[C@@H]2C)cc1OC (stereo partly drawn)	> 100

test system: DLD-1 colon; assay: NCI-60 cell line screen, 48 h

Compound	TGI [µM]
COc1ccc(-c2ccccc2)c(N/N=C2\CCCNC2=O)c1	> 100
COc1ccc(C2Oc3ccc(O)cc3[C@@H]2C)cc1OC (stereo partly drawn)	> 100

test system: SR leukemia; assay: NCI-60 cell line screen, 48 h

Compound	TGI [µM]
COc1ccc(NC(=O)CSc2nnc(-c3ccc(N=Cc4ccc(Cl)cc4)cc3)o2)cc1	61.2
COc1ccc(-c2ccccc2)c(N/N=C2\CCCNC2=O)c1	> 100

test system: KM12 colon; assay: NCI-60 cell line screen, 48 h

Compound	TGI [µM]
COc1ccc(NC(=O)CSc2nnc(-c3ccc(N=Cc4ccc(Cl)cc4)cc3)o2)cc1	> 80.9
COc1ccc(-c2ccccc2)c(N/N=C2\CCCNC2=O)c1	> 100
COc1ccc(C2Oc3ccc(O)cc3[C@@H]2C)cc1OC (stereo partly drawn)	> 100

test system: MDA-N; assay: NCI-60 cell line screen, 48 h

Compound	TGI [µM]
COc1ccc(NC(=O)CSc2nnc(-c3ccc(N=Cc4ccc(Cl)cc4)cc3)o2)cc1	> 100

test system: SNB-78 CNS; assay: NCI-60 cell line screen, 48 h

Compound	TGI [µM]
CCOC(=O)COc1ccc(OC)c2c1C(=O)CCC2	> 100
COc1ccc(NC(=O)CSc2nnc(-c3ccc(N=Cc4ccc(Cl)cc4)cc3)o2)cc1	77.3
COc1ccc(-c2ccccc2)c(N/N=C2\CCCNC2=O)c1	> 100
COc1ccc(C2Oc3ccc(O)cc3[C@@H]2C)cc1OC (stereo partly drawn)	> 100

test system: OVCAR-8 ovarian; assay: NCI-60 cell line screen, 48 h

Compound	TGI [µM]
CCOC(=O)COc1ccc(OC)c2c1C(=O)CCC2	> 100
COc1ccc(NC(=O)CSc2nnc(-c3ccc(N=Cc4ccc(Cl)cc4)cc3)o2)cc1	> 100
COc1ccc(-c2ccccc2)c(N/N=C2\CCCNC2=O)c1	> 100
COc1ccc(C2Oc3ccc(O)cc3[C@@H]2C)cc1OC (stereo partly drawn)	> 100

test system: RXF 393 renal; assay: NCI-60 cell line screen, 48 h

Compound	TGI [µM]
CCOC(=O)COc1ccc(OC)c2c1C(=O)CCC2	> 100
COc1ccc(NC(=O)CSc2nnc(-c3ccc(N=Cc4ccc(Cl)cc4)cc3)o2)cc1	> 100
COc1ccc(-c2ccccc2)c(N/N=C2\CCCNC2=O)c1	27.5
COc1ccc(C2Oc3ccc(O)cc3[C@@H]2C)cc1OC (stereo partly drawn)	> 100

test system: BT-549 breast; assay: NCI-60 cell line screen, 48 h

Compound	TGI [µM]
COc1ccc(NC(=O)CSc2nnc(-c3ccc(N=Cc4ccc(Cl)cc4)cc3)o2)cc1	> 100

test system: KM20L2 colon; assay: NCI-60 cell line screen, 48 h

Compound	TGI [µM]
CCOC(=O)COc1ccc(OC)c2c1C(=O)CCC2	> 100
COc1ccc(NC(=O)CSc2nnc(-c3ccc(N=Cc4ccc(Cl)cc4)cc3)o2)cc1	> 100
COc1ccc(-c2ccccc2)c(N/N=C2\CCCNC2=O)c1	> 100
COc1ccc(C2Oc3ccc(O)cc3[C@@H]2C)cc1OC (stereo partly drawn)	> 100

test system: HT29 colon; assay: NCI-60 cell line screen, 48 h

Compound	TGI [µM]
CCOC(=O)COc1ccc(OC)c2c1C(=O)CCC2	> 100
COc1ccc(NC(=O)CSc2nnc(-c3ccc(N=Cc4ccc(Cl)cc4)cc3)o2)cc1	> 100
COc1ccc(-c2ccccc2)c(N/N=C2\CCCNC2=O)c1	> 100
COc1ccc(C2Oc3ccc(O)cc3[C@@H]2C)cc1OC (stereo partly drawn)	> 100

test system: OVCAR-5 ovarian; assay: NCI-60 cell line screen, 48 h

Compound	TGI [µM]
COc1ccc(NC(=O)CSc2nnc(-c3ccc(N=Cc4ccc(Cl)cc4)cc3)o2)cc1	> 100
COc1ccc(-c2ccccc2)c(N/N=C2\CCCNC2=O)c1	> 100
COc1ccc(C2Oc3ccc(O)cc3[C@@H]2C)cc1OC (stereo partly drawn)	> 100

test system: PC-3 prostate; assay: NCI-60 cell line screen, 48 h

Compound	TGI [µM]
COc1ccc(NC(=O)CSc2nnc(-c3ccc(N=Cc4ccc(Cl)cc4)cc3)o2)cc1	> 100

test system: SK-MEL-2 melanoma; assay: NCI-60 cell line screen, 48 h

Compound	TGI [µM]
COc1ccc(NC(=O)CSc2nnc(-c3ccc(N=Cc4ccc(Cl)cc4)cc3)o2)cc1	45.8
COc1ccc(-c2ccccc2)c(N/N=C2\CCCNC2=O)c1	> 100
COc1ccc(C2Oc3ccc(O)cc3[C@@H]2C)cc1OC (stereo partly drawn)	> 100

test system: LOX IMVI melanoma; assay: NCI-60 cell line screen, 48 h

Compound	TGI [µM]
CCOC(=O)COc1ccc(OC)c2c1C(=O)CCC2	> 100
COc1ccc(NC(=O)CSc2nnc(-c3ccc(N=Cc4ccc(Cl)cc4)cc3)o2)cc1	31.9
COc1ccc(-c2ccccc2)c(N/N=C2\CCCNC2=O)c1	> 100
COc1ccc(C2Oc3ccc(O)cc3[C@@H]2C)cc1OC (stereo partly drawn)	> 100

test system: DMS 273 small cell lung; assay: NCI-60 cell line screen, 48 h

Compound	TGI [µM]
CCOC(=O)COc1ccc(OC)c2c1C(=O)CCC2	> 100
COc1ccc(NC(=O)CSc2nnc(-c3ccc(N=Cc4ccc(Cl)cc4)cc3)o2)cc1	79.6
COc1ccc(-c2ccccc2)c(N/N=C2\CCCNC2=O)c1	> 100
COc1ccc(C2Oc3ccc(O)cc3[C@@H]2C)cc1OC (stereo partly drawn)	> 100

test system: M19-MEL melanoma; assay: NCI-60 cell line screen, 48 h

Compound	TGI [µM]
CCOC(=O)COc1ccc(OC)c2c1C(=O)CCC2	> 100
COc1ccc(NC(=O)CSc2nnc(-c3ccc(N=Cc4ccc(Cl)cc4)cc3)o2)cc1	68.1
COc1ccc(-c2ccccc2)c(N/N=C2\CCCNC2=O)c1	> 100
COc1ccc(C2Oc3ccc(O)cc3[C@@H]2C)cc1OC (stereo partly drawn)	> 100
